Experimental data as given in PMC3388911, “Structure of Leishmania major cysteine synthase” (Acta Crystallographica Section F: Structural Biology and …, 2012).
Read-outs that look alike come from different tables or passages of the source. Where a SMILES comes first, the peptide text is derived from it. Where no end group is shown, it is not given here. The star is where a group is joined. Cbz = O=C(OCc1ccccc1)*

Key:
[1] = target: T1, LmCS (L. major cysteine synthase) (Leishmania major, UniProt Q4Q159); assay: biochemical
T1 sequence (Q4Q159 1-333): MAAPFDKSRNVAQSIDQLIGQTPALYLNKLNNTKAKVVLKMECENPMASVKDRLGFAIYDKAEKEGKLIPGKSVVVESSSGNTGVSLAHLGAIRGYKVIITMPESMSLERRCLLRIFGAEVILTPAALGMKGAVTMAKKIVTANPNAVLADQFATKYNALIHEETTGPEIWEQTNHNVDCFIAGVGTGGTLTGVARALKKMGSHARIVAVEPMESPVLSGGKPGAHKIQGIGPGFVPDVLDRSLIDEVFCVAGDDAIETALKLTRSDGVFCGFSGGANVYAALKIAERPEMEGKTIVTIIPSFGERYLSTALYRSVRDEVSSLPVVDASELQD

[2] = target: T2, AtOAS-TL (A. thaliana O-acetylserine thiol-lyase) (Arabidopsis thaliana, UniProt P47998); assay: biochemical
T2 sequence (P47998 whole entry): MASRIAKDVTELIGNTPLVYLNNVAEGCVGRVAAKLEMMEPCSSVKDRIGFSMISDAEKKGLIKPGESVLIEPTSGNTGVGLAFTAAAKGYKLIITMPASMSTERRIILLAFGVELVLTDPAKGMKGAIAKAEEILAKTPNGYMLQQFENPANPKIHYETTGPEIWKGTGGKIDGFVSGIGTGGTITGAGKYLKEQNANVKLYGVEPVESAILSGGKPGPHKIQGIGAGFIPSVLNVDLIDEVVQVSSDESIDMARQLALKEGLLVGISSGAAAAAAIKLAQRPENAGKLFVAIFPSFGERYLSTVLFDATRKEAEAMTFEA

[3] = system: Mycobacterium tuberculosis CS (OASS); details: ref Schnell et al., 2007; cited from earlier work
[4] = target: T2, AtOAS-TL (A. thaliana O-acetylserine thiol-lyase); details: read-out: AtOAS-TL IC50; 3 mM OAS, 2 mM sodium sulfide, pH 7.8, room temperature; values with ± are mean ± SD of three determinations, others single IC50 curve
[5] = target: the molecule itself; assay: crystal structure; hanging drop at 293 K, 7.5% PGA-LM, 19% PEG 3350, 0.1 M Tris-HCl pH 7.8; P212121, dimer in the asymmetric unit; 1.8 Å; molecular replacement
[6] = target: T3, Leishmania major cysteine synthase, C-terminally His-tagged (biochemical analysis) (Leishmania major) (UniProt Q4Q159)
T3 sequence: T1 sequence (Q4Q159 1-333)

[7] = target: Arabidopsis thaliana O-acetylserine thiol-lyase (Arabidopsis thaliana) (UniProt P47998)
Arabidopsis thaliana O-acetylserine thiol-lyase (Arabidopsis thaliana), sequence (P47998 whole entry): as above

[8] = target: Arabidopsis thaliana O-acetylserine thiol-lyase (Arabidopsis thaliana, UniProt P47998 1-322); assay: cell-based or functional assay
Arabidopsis thaliana O-acetylserine thiol-lyase, sequence (P47998 whole entry): as above

[9] = LmCS IC50, 3 mM OAS, 2 mM sodium sulfide, pH 7.8, room temperature, values with ± are mean ± SD of three determinations, others single IC50 curve
[10] = 3 mM OAS, 2 mM sodium sulfide, pH 7.8, room temperature, values with ± are mean ± SD of three determinations, others single IC50 curve, read-out: LmCS IC50

Q: Which results are given for `CC[C@H](C)[C@H](NC(=O)[C@@H](NC(=O)[C@H](Cc1ccc(O)cc1)NC(=O)[C@@H](N)CC(=O)O)C(C)C)C(=O)O` [DYVI] (H-DYVI-OH)?
A: Ki [1]: 4 µM; IC50 [1, 9]: 7 ± 1 µM

Q: With `CC[C@H](C)[C@H](NC(=O)[C@@H](NC(=O)OCc1ccccc1)C(C)C)C(=O)O` [N-CBZ-L-valine-isoleucine] (Cbz-Val-Ile-OH) as the molecule, how does the IC50 [1] read?
A: 1410 µM

Q: With `CC[C@H](C)[C@H](N)C(=O)O` [L-Isoleucine] as the molecule, how does the IC50 [1, 10] read?
A: > 4000 µM

Q: What about the “inhibition of LmCS” value ([1]; at 4 mM) of the same molecule?
A: no activity

Q: Which results are given for DGSGI [DGSGI]?
A: IC50 [2]: 170 µM; IC50 [1, 9]: 620 ± 50 µM

Q: For EGDGSGI [EGDGSGI], which IC50 [2] is on record?
A: 240 µM

Q: And the IC50 [1, 9]?
A: 270 ± 70 µM

Q: With DFSI as the molecule, how does the “type of inhibition of M. tuberculosis OASS” value [3] read?
A: competitive inhibitor

Q: For `CC[C@H](C)[C@H](NC(=O)Cc1c[nH]c2ccccc12)C(=O)O` [N-3-Indolylacetyl-L-isoleucine], which IC50 [1, 10] is on record?
A: 260 µM

Q: For (γ-Glu)4, which “inhibition of LmCS” value ([1]; tested up to a concentration of 500 µM) is on record?
A: unable to detect any significant inhibition

Q: What about the “inhibition of LmCS” value ([1]; tested up to a concentration of 500 µM, listed as D-glutamate tetrapeptide) of the same molecule?
A: insignificant inhibitory activity

Q: Which results are given for `CC[C@H](C)[C@H](NC(=O)CNC(=O)[C@H](CO)NC(=O)CN)C(=O)O` [GSGI] (H-GSGI-OH)?
A: IC50 ([1]; LmCS IC50, 3 mM OAS, 2 mM sodium sulfide): ~1500 µM; IC50 [1, 9]: 1500 µM; IC50 [4]: ≤ 2000 µM

Q: Which IC50 [1] does the source give for `CC[C@H](C)[C@H](NC(=O)OCc1ccccc1)C(=O)O` [N-CBZ-L-isoleucine] here?
A: 320 µM

B1: Leishmania major cysteine synthase (crystallised form, His tag cleaved) (enzyme)
chain: T1 sequence (Q4Q159 1-333)
notes: Leishmania major cysteine synthase (EC 2.5.1.47); LmCS gene subcloned from pET21a+ into pET15bTEV; theoretical mass of one subunit 35.6 kDa; residues 3-213 and 241-333 (subunit A) and 4-214 and 241-333 (subunit B) are seen in the model; The pyridoxal phosphate cofactor was lost in the crystal; A fragment of gamma-poly-D-glutamic acid lies in the active site; also called LmCS; L. major CS; source: …
Q: Which “stoichiometry N” value [5] does the source give for B1 here?
A: 2

B2: EGDGSGI, Leishmania SAT C-terminal heptapeptide (peptide)
peptide: EGDGSGI
Q: With B2 as the molecule, how does the IC50 of inhibition of cysteine synthase activity (cysteine production; 3 mM OAS, 2 mM sodium sulfide) [6] read?
A: 270 µM

Q: What about the IC50 of inhibition of cysteine synthase activity (cysteine production; 3 mM OAS, 2 mM sodium sulfide); single IC50 curve [7] of the same molecule?
A: 240 µM

B3: GSGI, Leishmania SAT C-terminal peptide (peptide)
peptide: GSGI
Q: With B3 as the molecule, how does the IC50 of inhibition of cysteine synthase activity (cysteine production; 3 mM OAS, 2 mM sodium sulfide); single IC50 curve [6] read?
A: 1500 µM

Q: What about the IC50 of inhibition of cysteine synthase activity (cysteine production; 3 mM OAS, 2 mM sodium sulfide); single IC50 curve [7] of the same molecule?
A: < 2000 µM

B4: DYVI, peptide based on the C-terminus of A. thaliana serine acetyltransferase (peptide)
peptide: DYVI
modifications: not fully specified
Q: For B4, which “IC50 of inhibition of cysteine synthase activity (cysteine production; 3 mM OAS, 2 mM sodium sulfide)” value [8] is on record?
A: 8 µM

Q: And the IC50 of inhibition of cysteine synthase activity (cysteine production; 3 mM OAS, 2 mM sodium sulfide) [6]?
A: 7 µM

B5: DGSGI, Leishmania SAT C-terminal peptide (peptide)
peptide: DGSGI
Q: Which IC50 of inhibition of cysteine synthase activity (cysteine production; 3 mM OAS, 2 mM sodium sulfide) [6] does the source give for B5 here?
A: 620 µM

Q: And the IC50 of inhibition of cysteine synthase activity (cysteine production; 3 mM OAS, 2 mM sodium sulfide); single IC50 curve [7]?
A: 170 µM
